PMC11062899, “De novo development of small cyclic peptides that are orally bioavailable” (Nature Chemical Biology, 2023)
Values joined by “and” are separate entries in the source; they are usually repeats but may differ in a detail not shown here. Equal entries are not always repeated. Where two headings read alike, the source gives them in different places.

Columns and labels:
porcine pepsin = target: T1, porcine pepsin (Sus scrofa, UniProt P00791); assay: Peptide stability in simulated gastric fluid (SGF); assay type: in vitro ADME
T1 construct: 0.32 g of porcine pepsin (Sigma-Aldrich, P7125) was dissolved under gentle agitation; purchased Sigma-Aldrich P7125
How it was run: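 Peptide from a 1 mM DMSO stock was added to fluid pre-warmed at 37 °C. SGF was pH 1.2 NaCl with porcine pepsin (0.32 g per 100 ml), and SIF was pH 6.8 potassium phosphate with porcine pancreatin (1 g per 100 ml). Supernatant peptide was quantified by LC–MS, with residual expressed as T1/T0.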

rat α-thrombin = target: T2, rat α-thrombin (Rattus norvegicus, UniProt P18292); assay: Protease inhibition, Ki for rat α-thrombin (fluorogenic substrate Z-Gly-Gly-Arg-AMC); assay type: biochemical; conditions: rat alpha thrombin; for Slope normalized to DMSO (proteolytic substrate cleavage over time): replicates R1-R3
T2 construct: rat α-thrombin (Molecular Innovations) were used at final concentrations of 2 nM and 3 nM; purchased Molecular Innovations
How it was run: (§1)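 Ki values come from Cheng–Prusoff correction of IC50, itself fitted by four-parameter logistic regression of activity versus a no-peptide control. Assays used 2 nM human or 3 nM rat thrombin, 50 μM Z-Gly-Gly-Arg-AMC, 30 min kinetic fluorescence at 25 °C.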

[1] = Metabolic stability in rat liver microsomes (RLMs); conditions: for microsomal CLint / half-life: rat
[2] = Passive artificial membrane permeability (PAMPA)
human α-thrombin = human α-thrombin (Homo sapiens, UniProt P00734); assay: Protease inhibition, Ki for human α-thrombin (fluorogenic substrate Z-Gly-Gly-Arg-AMC); assay type: biochemical; conditions: human alpha thrombin; for Slope normalized to DMSO (proteolytic substrate cleavage over time): replicates R1-R3
How it was run: as §1

T1 sequence (P00791 60-385): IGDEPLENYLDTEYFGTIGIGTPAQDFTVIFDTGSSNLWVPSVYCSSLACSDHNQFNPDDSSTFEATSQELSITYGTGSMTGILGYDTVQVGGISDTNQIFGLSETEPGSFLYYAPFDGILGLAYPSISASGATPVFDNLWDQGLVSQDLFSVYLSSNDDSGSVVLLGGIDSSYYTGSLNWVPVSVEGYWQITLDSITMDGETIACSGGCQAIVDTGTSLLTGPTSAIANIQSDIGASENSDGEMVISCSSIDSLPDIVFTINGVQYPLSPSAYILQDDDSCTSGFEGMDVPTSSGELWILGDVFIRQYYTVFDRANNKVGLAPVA

Structure (SMILES): O=C1C[C@H]2CCCN2C(=O)[C@H](Cc2ccccc2)NC(=O)[C@@H](NC(=O)c2ccc(Cl)s2)CCSCc2cccc(n2)CSCCN1 [compound 33]
- SGF stability, Residual peptide Average (porcine pepsin; after 8 h vs 0 h (TIC), average of R1-R3): 94.64
- SGF stability, Residual peptide (porcine pepsin; after 8 h vs 0 h (TIC), single replicates R1-R3): 93.36 and 101.37 and 89.19
- remaining at 8 h (porcine pepsin; simulated gi fluid, 8 h, 37 °C, pH 1.2, read-out: Proteolytic stability: SGF (8 h) % remaining): 95 ± 6%
- Ki (rat α-thrombin; average of R1-R3, read-out: Ki Average, rat alpha thrombin inhibition): 0.0487 µM
- Slope normalized to DMSO (proteolytic substrate cleavage over time) (rat α-thrombin; peptide 1.02E-03 uM): 97.0 and 99.6 and 95.3
- Slope normalized to DMSO (proteolytic substrate cleavage over time) (rat α-thrombin; peptide 1.04E+00 uM): 14.5 and 15.6 and 13.7
- Slope normalized to DMSO (proteolytic substrate cleavage over time) (rat α-thrombin; peptide 1.27E-04 uM): 100.8 and 101.2 and 98.8
- Slope normalized to DMSO (proteolytic substrate cleavage over time) (rat α-thrombin; peptide 1.30E-01 uM): 42.9 and 43.5 and 41.1
- Slope normalized to DMSO (proteolytic substrate cleavage over time) (rat α-thrombin; peptide 1.59E-05 uM): 100.2 and 103.5 and 96.9
- Slope normalized to DMSO (proteolytic substrate cleavage over time) (rat α-thrombin; peptide 1.63E-02 uM): 81.2 and 82.0 and 78.1
- Slope normalized to DMSO (proteolytic substrate cleavage over time) (rat α-thrombin; peptide 1.67E+01 uM): 4.8 and 6.2 and 3.6
- Slope normalized to DMSO (proteolytic substrate cleavage over time) (rat α-thrombin; peptide 2.03E-03 uM): 97.0 and 98.5 and 91.0
- Slope normalized to DMSO (proteolytic substrate cleavage over time) (rat α-thrombin; peptide 2.08E+00 uM): 9.6 and 11.2 and 10.1
- Slope normalized to DMSO (proteolytic substrate cleavage over time) (rat α-thrombin; peptide 2.54E-04 uM): 101.1 and 99.8 and 96.9
- Slope normalized to DMSO (proteolytic substrate cleavage over time) (rat α-thrombin; peptide 2.60E-01 uM): 27.4 and 28.5 and 28.0
- Slope normalized to DMSO (proteolytic substrate cleavage over time) (rat α-thrombin; peptide 3.18E-05 uM): 101.5 and 104.3 and 97.0
- Slope normalized to DMSO (proteolytic substrate cleavage over time) (rat α-thrombin; peptide 3.26E-02 uM): 78.3 and 77.8 and 74.1
- Slope normalized to DMSO (proteolytic substrate cleavage over time) (rat α-thrombin; peptide 3.33E+01 uM): 5.1 and 5.9 and 3.3
- Slope normalized to DMSO (proteolytic substrate cleavage over time) (rat α-thrombin; peptide 4.07E-03 uM): 94.4 and 95.7 and 92.3
- Slope normalized to DMSO (proteolytic substrate cleavage over time) (rat α-thrombin; peptide 4.17E+00 uM): 6.3 and 7.7 and 3.6
- Slope normalized to DMSO (proteolytic substrate cleavage over time) (rat α-thrombin; peptide 5.09E-04 uM): 98.0 and 98.3 and 95.3
- Slope normalized to DMSO (proteolytic substrate cleavage over time) (rat α-thrombin; peptide 5.21E-01 uM): 18.6 and 18.9 and 16.5
- Slope normalized to DMSO (proteolytic substrate cleavage over time) (rat α-thrombin; peptide 6.36E-05 uM): 100.6 and 99.7 and 96.2
- Slope normalized to DMSO (proteolytic substrate cleavage over time) (rat α-thrombin; peptide 6.51E-02 uM): 60.0 and 58.6 and 62.0
- Slope normalized to DMSO (proteolytic substrate cleavage over time) (rat α-thrombin; peptide 6.67E+01 uM): 5.5 and 6.9 and 1.9
- Slope normalized to DMSO (proteolytic substrate cleavage over time) (rat α-thrombin; peptide 7.95E-06 uM): 105.3 and 103.4 and 99.9
- Slope normalized to DMSO (proteolytic substrate cleavage over time) (rat α-thrombin; peptide 8.14E-03 uM): 89.5 and 90.6 and 84.9
- Slope normalized to DMSO (proteolytic substrate cleavage over time) (rat α-thrombin; peptide 8.33E+00 uM): 6.7 and 6.6 and 4.7
- IC50 (rat α-thrombin; single replicates R1-R3, read-out: IC50, rat alpha thrombin inhibition): 0.0862 µM and 0.0823 µM and 0.0954 µM
- Ki (rat α-thrombin; single replicates R1-R3, read-out: Ki, rat alpha thrombin inhibition): 47.7 nM (2×) and 45.6 nM (2×) and 52.8 nM (2×)
- TIC value of compound, 0 min, R1 ([1]; rat liver microsomes, 0 min, replicate R1): 21264470
- TIC value of compound, 0 min, R3 ([1]; rat liver microsomes, 0 min, replicate R3): 18840495
- TIC value of compound, 5 min, R1 ([1]; rat liver microsomes, 5 min, replicate R1): 18437497
- TIC value of compound, 5 min, R3 ([1]; rat liver microsomes, 5 min, replicate R3): 18024716
- TIC value of compound, 15 min, R1 ([1]; rat liver microsomes, 15 min, replicate R1): 13918481
- TIC value of compound, 15 min, R3 ([1]; rat liver microsomes, 15 min, replicate R3): 11416589
- TIC value of compound, 30 min, R1 ([1]; rat liver microsomes, 30 min, replicate R1): 9967302
- TIC value of compound, 30 min, R3 ([1]; rat liver microsomes, 30 min, replicate R3): 7497114
- TIC value of compound, 60 min, R1 ([1]; rat liver microsomes, 60 min, replicate R1): 4659151
- TIC value of compound, 60 min, R3 ([1]; rat liver microsomes, 60 min, replicate R3): 3520876
- microsomal CLint ([1]; CL (ul/min/mg protein), R1, RLM CL, replicate R1, unrounded): 52.1 µL/min/mg
- microsomal CLint ([1]; CL (ul/min/mg protein), R2, RLM CL, replicate R2, unrounded): 71 µL/min/mg
- microsomal CLint ([1]; CL (ul/min/mg protein), R3, RLM CL, replicate R3, unrounded): 58.8 µL/min/mg
- half-life ([1]; Half Life (min), R1, RLM metabolic stability, replicate R1): 26.6 min
- half-life ([1]; Half Life (min), R2, RLM metabolic stability, replicate R2): 19.5 min
- half-life ([1]; Half Life (min), R3, RLM metabolic stability, replicate R3): 23.6 min
- half-life ([1]; microsomes, Metabolic stability: Half life T1/2 (min), RLMs, mean and SD, three measurements): 23 ± 3 min
- microsomal CLint ([1]; microsomes, Metabolic stability: RLM CL (ul/min/mg), RLMs, mean and SD, three measurements): 61 ± 8 µL/min/mg
- microsomal CLint ([1]; microsomes, RLM CL, Average, average of R1-R3): 60.6 µL/min/mg
- microsomal CLint ([1]; microsomes, RLM CL, R1, RLM CL, replicate R1, summary block): 52.1 µL/min/mg
- microsomal CLint ([1]; microsomes, RLM CL, R2, RLM CL, replicate R2, summary block): 71 µL/min/mg
- microsomal CLint ([1]; microsomes, RLM CL, R3, RLM CL, replicate R3, summary block): 58.8 µL/min/mg
- PAMPA permeability: % permeability ([2]; 50 μM, 12–18 h, acceptor concentration relative to equilibrium): 45 ± 10%
- Papp at 50 μM ([2]; PAMPA, pH 7.4): 5.89 ×10⁻⁶ cm/s
- Permeability% Average ([2]; top well sample vs theoretical equilibrium sample (TIC), average of R1-R3): 45.3%
- Permeability% ([2]; top well sample vs theoretical equilibrium sample (TIC), single replicates R1-R3): 55.48% and 44.56% and 35.81%
- Ki (human α-thrombin; average of R1-R3, read-out: Ki Average, human alpha thrombin inhibition): 0.0966 µM
- Slope normalized to DMSO (proteolytic substrate cleavage over time) (human α-thrombin; peptide 1.02E-03 uM): 103.0 and 105.2 and 102.2
- Slope normalized to DMSO (proteolytic substrate cleavage over time) (human α-thrombin; peptide 1.04E+00 uM): 21.7 and 19.1 and 21.5
- Slope normalized to DMSO (proteolytic substrate cleavage over time) (human α-thrombin; peptide 1.27E-04 uM): 106.0 and 98.8 and 103.2
- Slope normalized to DMSO (proteolytic substrate cleavage over time) (human α-thrombin; peptide 1.30E-01 uM): 57.8 and 50.1 and 54.9
- Slope normalized to DMSO (proteolytic substrate cleavage over time) (human α-thrombin; peptide 1.59E-05 uM): 109.2 and 97.6 and 100.1
- Slope normalized to DMSO (proteolytic substrate cleavage over time) (human α-thrombin; peptide 1.63E-02 uM): 89.4 and 85.3 and 86.8
- Slope normalized to DMSO (proteolytic substrate cleavage over time) (human α-thrombin; peptide 1.67E+01 uM): 7.7 and 6.1 and 7.5
- Slope normalized to DMSO (proteolytic substrate cleavage over time) (human α-thrombin; peptide 2.03E-03 uM): 102.9 and 97.6 and 97.7
- Slope normalized to DMSO (proteolytic substrate cleavage over time) (human α-thrombin; peptide 2.08E+00 uM): 19.7 and 13.9 and 8.6
- Slope normalized to DMSO (proteolytic substrate cleavage over time) (human α-thrombin; peptide 2.54E-04 uM): 113.7 and 102.5 and 100.7
- Slope normalized to DMSO (proteolytic substrate cleavage over time) (human α-thrombin; peptide 2.60E-01 uM): 43.1 and 35.0 and 39.7
- Slope normalized to DMSO (proteolytic substrate cleavage over time) (human α-thrombin; peptide 3.18E-05 uM): 105.3 and 102.8 and 93.4
- Slope normalized to DMSO (proteolytic substrate cleavage over time) (human α-thrombin; peptide 3.26E-02 uM): 88.2 and 77.6 and 78.4
- Slope normalized to DMSO (proteolytic substrate cleavage over time) (human α-thrombin; peptide 3.33E+01 uM): 6.8 and 6.6
- Slope normalized to DMSO (proteolytic substrate cleavage over time) (human α-thrombin; peptide 4.07E-03 uM): 95.5 and 99.8 and 99.7
- Slope normalized to DMSO (proteolytic substrate cleavage over time) (human α-thrombin; peptide 4.17E+00 uM): 12.3 and 14.8 and 9.6
- Slope normalized to DMSO (proteolytic substrate cleavage over time) (human α-thrombin; peptide 5.09E-04 uM): 101.7 and 102.5 and 100.0
- Slope normalized to DMSO (proteolytic substrate cleavage over time) (human α-thrombin; peptide 5.21E-01 uM): 26.3 and 24.6 and 23.6
- Slope normalized to DMSO (proteolytic substrate cleavage over time) (human α-thrombin; peptide 6.36E-05 uM): 99.2 and 97.4 and 102.8
- Slope normalized to DMSO (proteolytic substrate cleavage over time) (human α-thrombin; peptide 6.51E-02 uM): 70.8 and 64.0 and 70.3
- Slope normalized to DMSO (proteolytic substrate cleavage over time) (human α-thrombin; peptide 6.67E+01 uM): 6.9 and 8.6 and 6.6
- Slope normalized to DMSO (proteolytic substrate cleavage over time) (human α-thrombin; peptide 7.95E-06 uM): 102.4 and 98.2 and 102.1
- Slope normalized to DMSO (proteolytic substrate cleavage over time) (human α-thrombin; peptide 8.14E-03 uM): 92.1 and 87.0 and 91.2
- Slope normalized to DMSO (proteolytic substrate cleavage over time) (human α-thrombin; peptide 8.33E+00 uM): 12.3 and 13.7 and 5.0
- IC50 (human α-thrombin; single replicates R1-R3, read-out: IC50, human alpha thrombin inhibition): 0.139 µM and 0.101 µM and 0.135 µM
- Ki (human α-thrombin; single replicates R1-R3, read-out: Ki, human alpha thrombin inhibition): 0.108 µM and 0.078 µM and 0.104 µM
